PubChem BioAssay (NCI)
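Dose response: 5 concentrations. Exposure: 48 h. Format: 96-well plates. Endpoint: linear interpolation; highest concentration if not reached. GI50 marks 50% less growth. TGI: concentration producing complete growth inhibition.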

Experiments:
Experiment in all cases: NCI-60 cell line screen, 48 h
HCT-116 colon = test system: HCT-116 colon
MDA-MB-231 breast = test system: MDA-MB-231 breast
TK-10 renal = test system: TK-10 renal
HOP-62 NSCLC = test system: HOP-62 NSCLC
OVCAR-5 ovarian = test system: OVCAR-5 ovarian
SF-268 CNS = test system: SF-268 CNS
MOLT-4 leukemia = test system: MOLT-4 leukemia
SW-620 colon = test system: SW-620 colon
SN12C renal = test system: SN12C renal
T-47D breast = test system: T-47D breast
SK-MEL-5 melanoma = test system: SK-MEL-5 melanoma
SNB-75 CNS = test system: SNB-75 CNS
EKVX NSCLC = test system: EKVX NSCLC
M14 melanoma = test system: M14 melanoma
SF-539 CNS = test system: SF-539 CNS
MCF7 breast = test system: MCF7 breast
BT-549 breast = test system: BT-549 breast
SNB-19 CNS = test system: SNB-19 CNS
SR leukemia = test system: SR leukemia
NCI-H23 lung = test system: NCI-H23 lung
NCI-H226 lung = test system: NCI-H226 lung
SK-OV-3 ovarian = test system: SK-OV-3 ovarian
UACC-257 melanoma = test system: UACC-257 melanoma
CAKI-1 renal = test system: CAKI-1 renal
OVCAR-4 ovarian = test system: OVCAR-4 ovarian
DU-145 prostate = test system: DU-145 prostate
SK-MEL-2 melanoma = test system: SK-MEL-2 melanoma
UO-31 renal = test system: UO-31 renal
UACC-62 melanoma = test system: UACC-62 melanoma
HOP-92 NSCLC = test system: HOP-92 NSCLC
U251 CNS = test system: U251 CNS
CCRF-CEM leukemia = test system: CCRF-CEM leukemia
LOX IMVI melanoma = test system: LOX IMVI melanoma
K-562 leukemia = test system: K-562 leukemia
SF-295 CNS = test system: SF-295 CNS
OVCAR-3 ovarian = test system: OVCAR-3 ovarian
HCC-2998 colon = test system: HCC-2998 colon
NCI-H522 lung = test system: NCI-H522 lung
HCT-15 colon = test system: HCT-15 colon
RPMI-8226 leukemia = test system: RPMI-8226 leukemia
HS 578T breast = test system: HS 578T breast
MDA-MB-435 = test system: MDA-MB-435
A549 NSCLC = test system: A549 NSCLC
PC-3 prostate = test system: PC-3 prostate
ACHN renal = test system: ACHN renal
RXF 393 renal = test system: RXF 393 renal
HT29 colon = test system: HT29 colon
OVCAR-8 ovarian = test system: OVCAR-8 ovarian
NCI-H460 lung = test system: NCI-H460 lung
HL-60(TB) leukemia = test system: HL-60(TB) leukemia
NCI/ADR-RES ovarian = test system: NCI/ADR-RES ovarian
A498 renal = test system: A498 renal
MALME-3M melanoma = test system: MALME-3M melanoma
IGROV1 ovarian = test system: IGROV1 ovarian
SK-MEL-28 melanoma = test system: SK-MEL-28 melanoma
786-0 renal = test system: 786-0 renal

SMILES: N#Cc1c(N)nn(C(=O)c2ccc(NC(=O)c3ccccn3)cc2)c1-c1ccc(Cl)cc1
- GI50 (HCT-116 colon): 3.32 µM
- TGI (HCT-116 colon): > 100 µM
- GI50 (MDA-MB-231 breast): 11.6 µM
- TGI (MDA-MB-231 breast): > 100 µM
- GI50 (TK-10 renal): 3.65 µM
- TGI (TK-10 renal): 19.4 µM
- GI50 (HOP-62 NSCLC): 2.53 µM
- TGI (HOP-62 NSCLC): 8.37 µM
- GI50 (OVCAR-5 ovarian): 8.65 µM
- TGI (OVCAR-5 ovarian): > 100 µM
- GI50 (SF-268 CNS): 3.55 µM
- TGI (SF-268 CNS): 24.1 µM
- GI50 (MOLT-4 leukemia): 25.7 µM
- TGI (MOLT-4 leukemia): > 100 µM
- GI50 (SW-620 colon): 3.7 µM
- TGI (SW-620 colon): > 100 µM
- GI50 (SN12C renal): 6.42 µM
- TGI (SN12C renal): > 100 µM
- GI50 (T-47D breast): 2.79 µM
- TGI (T-47D breast): 9.15 µM
- GI50 (SK-MEL-5 melanoma): 7.15 µM
- TGI (SK-MEL-5 melanoma): > 100 µM
- GI50 (SNB-75 CNS): 1.86 µM
- TGI (SNB-75 CNS): 4.07 µM
- GI50 (EKVX NSCLC): 6.96 µM
- TGI (EKVX NSCLC): > 100 µM
- GI50 (M14 melanoma): 5.52 µM
- TGI (M14 melanoma): > 100 µM
- GI50 (SF-539 CNS): 3.21 µM
- TGI (SF-539 CNS): 12.5 µM
- GI50 (MCF7 breast): 2.71 µM
- TGI (MCF7 breast): > 100 µM
- GI50 (BT-549 breast): 4.86 µM
- TGI (BT-549 breast): > 100 µM
- GI50 (SNB-19 CNS): 4.15 µM
- TGI (SNB-19 CNS): 33.3 µM
- GI50 (SR leukemia): 3.81 µM
- TGI (SR leukemia): > 100 µM
- GI50 (NCI-H23 lung): 3.77 µM
- TGI (NCI-H23 lung): 34.8 µM
- GI50 (NCI-H226 lung): 3.08 µM
- TGI (NCI-H226 lung): 31 µM
- GI50 (SK-OV-3 ovarian): 5.23 µM
- TGI (SK-OV-3 ovarian): 34.9 µM
- GI50 (UACC-257 melanoma): 4.34 µM
- TGI (UACC-257 melanoma): 68.3 µM
- GI50 (CAKI-1 renal): 2.06 µM
- TGI (CAKI-1 renal): 6.3 µM
- GI50 (OVCAR-4 ovarian): 2.33 µM
- TGI (OVCAR-4 ovarian): 6.02 µM
- GI50 (DU-145 prostate): 2.7 µM
- TGI (DU-145 prostate): 7.29 µM
- GI50 (SK-MEL-2 melanoma): 71.6 µM
- TGI (SK-MEL-2 melanoma): > 100 µM
- GI50 (UO-31 renal): 1.79 µM
- TGI (UO-31 renal): 5.27 µM
- GI50 (UACC-62 melanoma): 9.45 µM
- TGI (UACC-62 melanoma): > 100 µM
- GI50 (HOP-92 NSCLC): 2.31 µM
- TGI (HOP-92 NSCLC): 9.5 µM
- GI50 (U251 CNS): 2.33 µM
- TGI (U251 CNS): 5.75 µM
- GI50 (CCRF-CEM leukemia): 8.86 µM
- TGI (CCRF-CEM leukemia): > 100 µM
- GI50 (LOX IMVI melanoma): 5.75 µM
- TGI (LOX IMVI melanoma): > 100 µM
- GI50 (K-562 leukemia): 6.62 µM
- TGI (K-562 leukemia): > 100 µM
- GI50 (SF-295 CNS): 3.06 µM
- TGI (SF-295 CNS): 15.7 µM
- GI50 (OVCAR-3 ovarian): 3.9 µM
- TGI (OVCAR-3 ovarian): 24.3 µM
- GI50 (HCC-2998 colon): 3.68 µM
- TGI (HCC-2998 colon): > 100 µM
- GI50 (NCI-H522 lung): 4.52 µM
- TGI (NCI-H522 lung): > 100 µM
- GI50 (HCT-15 colon): 5.04 µM
- TGI (HCT-15 colon): > 100 µM
- GI50 (RPMI-8226 leukemia): > 100 µM
- TGI (RPMI-8226 leukemia): > 100 µM
- GI50 (HS 578T breast): 2.89 µM
- TGI (HS 578T breast): > 100 µM
- GI50 (MDA-MB-435): 4.81 µM
- TGI (MDA-MB-435): > 100 µM
- GI50 (A549 NSCLC): 3.24 µM
- TGI (A549 NSCLC): 12.8 µM
- GI50 (PC-3 prostate): 3.58 µM
- TGI (PC-3 prostate): > 100 µM
- GI50 (ACHN renal): 3.48 µM
- TGI (ACHN renal): 15.5 µM
- GI50 (RXF 393 renal): 3.11 µM
- TGI (RXF 393 renal): 24.5 µM
- GI50 (HT29 colon): 3.55 µM
- TGI (HT29 colon): > 100 µM
- GI50 (OVCAR-8 ovarian): 3.38 µM
- TGI (OVCAR-8 ovarian): 17.7 µM
- GI50 (NCI-H460 lung): 4.02 µM
- TGI (NCI-H460 lung): 61.7 µM
- GI50 (HL-60(TB) leukemia): > 100 µM
- TGI (HL-60(TB) leukemia): > 100 µM
- GI50 (NCI/ADR-RES ovarian): 4.09 µM
- TGI (NCI/ADR-RES ovarian): > 100 µM
- GI50 (A498 renal): 15.1 µM
- TGI (A498 renal): > 100 µM
- GI50 (MALME-3M melanoma): 2.35 µM
- TGI (MALME-3M melanoma): 6.45 µM
- GI50 (IGROV1 ovarian): 2.63 µM
- TGI (IGROV1 ovarian): 16.8 µM
- GI50 (SK-MEL-28 melanoma): 5.68 µM
- TGI (SK-MEL-28 melanoma): > 100 µM
- GI50 (786-0 renal): 2.97 µM
- TGI (786-0 renal): 8.54 µM
